From PubChem BioAssay (NCI) come the findings set out here.

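Cultured in 96-well plates, cells were exposed to test compound for 48 hours across five concentrations. GI50 is the concentration that inhibits growth by half. TGI denotes the concentration required for complete inhibition of growth.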 Activity calls are given as the source filed them. Rule as the data show it: active = GI50 below about 0.43 µM; inactive = the rest.

Test systems include T-47D breast; SK-OV-3 ovarian; SNB-19 CNS; 786-0 renal; UACC-62 melanoma; OVCAR-3 ovarian; BT-549 breast; OVCAR-5 ovarian; HT29 colon.
Common to all, as to experiment: inhibition of tumour cell growth, NCI panel, 48 h

Take `COC(=O)CCC(=O)C(=O)OC`: the result in the test with T-47D breast was inactive. Also, the GI50 in the test with SK-OV-3 ovarian was 11700 µM; in the test on SNB-19 CNS it was 34200 µM; in the test on 786-0 renal it was 33000 µM; with UACC-62 melanoma, 13600 µM; in the test on OVCAR-3 ovarian, 28600 µM; with BT-549 breast it was 26300 µM. The values for the GI50 with OVCAR-5 ovarian and in the test with HT29 colon were 26100 µM and 24200 µM, respectively. Moreover, the TGI with SK-OV-3 ovarian amounted to 62000 µM; in the test on UACC-62 melanoma, 51100 µM; with BT-549 breast, 96200 µM; with HT29 colon it was 85900 µM.

Take `Cc1ccc([N+](=O)[O-])cc1NC(=O)Nc1cccc(F)c1`: the GI50 in the test with T-47D breast is 3.45 µM; in the test with SK-OV-3 ovarian, 13.1 µM; in the test on SNB-19 CNS, 6.27 µM; with 786-0 renal it was 14.1 µM; in the test on UACC-62 melanoma it was 4.55 µM; with OVCAR-3 ovarian, 3.25 µM. Further, the GI50 is 45.1 µM with BT-549 breast, 9.82 µM in the test with OVCAR-5 ovarian and 4.35 µM with HT29 colon. Also, the TGI is above 100 µM with T-47D breast; 49.4 µM in the test with SK-OV-3 ovarian; 97.1 µM with SNB-19 CNS; above 100 µM in the test on 786-0 renal; above 100 µM with UACC-62 melanoma; 11.7 µM with OVCAR-3 ovarian. The TGI in the test with BT-549 breast, in the test with OVCAR-5 ovarian and with HT29 colon was above 100 µM each time.
